According to article PMC8284666, “Biochemical characterization of protease activity of Nsp3 from SARS-CoV-2 and its inhibition by nanobodies” (PLoS ONE, 2021):
Read-outs that look alike come from different tables or passages of the source.

Experiments:
Nsp3^core [1] = target: T1, Nsp3^core (Severe acute respiratory syndrome coronavirus 2, UniProt P0DTC1); assay: biochemical
PLpro from SARS-CoV-2 = PLpro from SARS-CoV-2 (Severe acute respiratory syndrome coronavirus 2, UniProt P0DTC1); assay: biochemical; conditions: for inhibition at 10 µM: read-out: percentage inhibition in the HTS
[2] = tested on: panel of 42 human DUBs and the viral ovarian tumor (vOTU); type: biochemical; conditions: tested at 10 and 1 μM; result in words
PLpro^CoV-1 = conditions: read-out: IC50 against PLpro^CoV-1; cited from earlier work
Nsp3^core [3] = target: T1, Nsp3^core; type: biochemical
SARS-CoV-2 PLpro = conditions: cited from earlier work
[4] = target: SARS-CoV-2 Nsp3 residues 743-1072 (PL-pro), purified, tags removed (SARS-CoV-2, Wuhan-Hu-1 (MN908947.3), UniProt P0DTD1); assay: ITC; conditions: both partners purified
[5] = screened in duplicate at 10 μM, hit criterion

Row | Molecule | IC50 (Nsp3^core [1]) [nM] | IC50 (PLpro from SARS-CoV-2) [nM] | selectivity / off-target inhibition in the DUB panel [2] | also measured
1 | CC(Cc1ccc(O)c(O)c1)C(C)Cc1ccc(O)c(O)c1 (stereo not shown) [Nordihydroguaiaretic acid] | 1620 | 1060 | – | inhibition at 10 µM (PLpro from SARS-CoV-2; [5]): > 50%
2 | Nc1nc2nc[nH]c2c(=S)[nH]1 [Thioguanine] | – | 4540 | – | –
3 | Auranofin | ~1000 | – | inhibited–at different extents–several other human DUBs | IC50 (PLpro from SARS-CoV-2; read-out: IC50 against PLpro): ~1000 nM
4 | O=c1sn(-c2cccc3ccccc23)c(=O)n1Cc1ccccc1 [Tideglusib] | 1480 | 210 | inhibited–at different extents–several other human DUBs | inhibition at 10 µM (PLpro from SARS-CoV-2): > 50%
5 | GRL-0617 | – | – | – | IC50 (PLpro^CoV-1): 600 nM; inhibition of viral polypeptide (Nsp1-2 FL) cleavage by Nsp3 (Nsp3^core [3]): able to inhibit cleavage of the viral polypeptide; IC50 (SARS-CoV-2 PLpro): ~2000 nM
6 | CCN(CC)C(=S)SSC(=S)N(CC)CC [Disulfiram] | 660 | 690 | inhibited–at different extents–several other human DUBs | inhibition at 10 µM (PLpro from SARS-CoV-2; [5]): > 50%
7 | NbSL18, recombinant, purified from bacteria (VHH) VHH: QVQLQESGGGLVQAGGSLRLSCAASGSIFLPGFMGWYRQAPGKERELVASITPGTTTNYADSVKGRFTISRDNAKNTVYLQMNSLKPEDTAVYYCAAYVFVYRNYWGQGTQVTVSS | – | – | – | Kd [4]: ~500 nM
